≈ marks a conversion by molar mass, not a printed value. Like-named read-outs stand apart in the source and are kept apart here.
Experiments:
[1] = tested on: Staphylococcus aureus X1.1; assay: MIC, standard agar-dilution assay, Staphylococcus aureus X1.1; assay type: cell-based
[2] = tested on: Staphylococcus aureus V41; assay: MIC, standard agar-dilution assay, Staphylococcus aureus V41; assay type: cell-based
[3] = tested on: Staphylococcus aureus X400; assay: MIC, standard agar-dilution assay, Staphylococcus aureus X400; assay type: cell-based
[4] = tested on: Staphylococcus aureus S13E; assay: MIC, standard agar-dilution assay, Staphylococcus aureus S13E; assay type: cell-based
[5] = tested on: Staphylococcus epidermidis EPI1; assay: MIC, standard agar-dilution assay, Staphylococcus epidermidis EPI1; assay type: cell-based
[6] = tested on: Staphylococcus epidermidis EPI2; assay: MIC, standard agar-dilution assay, Staphylococcus epidermidis EPI2; assay type: cell-based
[7] = tested on: Streptococcus pyogenes C203; assay: MIC, standard agar-dilution assay, Streptococcus pyogenes C203; assay type: cell-based
[8] = tested on: Streptococcus pneumoniae Park I; assay: microbe, parasite or virus in culture; assay type: cell-based
[9] = tested on: Streptococcus Group D X66; assay: MIC, standard agar-dilution assay, Streptococcus Group D X66; assay type: cell-based
Streptococcus Group 9960 = assay: MIC, standard agar-dilution assay, Streptococcus Group 9960; assay type: cell-based; details: Streptococcus Group 9960, agar dilution
[10] = tested on: Haemophilus influenzae R252; assay: MIC, standard agar-dilution assay, Haemophilus influenzae R252; assay type: cell-based
Staphylococcus aureus = assay: MIC, broth-dilution microtiter test, Staphylococcus aureus; assay type: cell-based
Text: (§1) The MIC's in Table X were obtained using conventional broth-dilution microtiter tests.

Streptococcus bovis 80 = assay: MIC, broth-dilution microtiter test, Streptococcus bovis 80; assay type: cell-based
Text: as §1

[11] = tested on: Pasteurella multocida 17E; assay: MIC, broth-dilution microtiter test, Pasteurella multocida 17E; assay type: cell-based; details: Pasteurella multocida 17E, bovine isolate, broth-dilution microtiter
Text: as §1

[12] = tested on: Pasteurella multocida 60A; assay: MIC, broth-dilution microtiter test, Pasteurella multocida 60A; assay type: cell-based
Text: as §1

[13] = tested on: Pasteurella hemolytica 22C; assay: MIC, broth-dilution microtiter test, Pasteurella hemolytica 22C; assay type: cell-based
Text: as §1

Mycoplasma gallisepticum = assay: MIC, broth-dilution microtiter test, Mycoplasma gallisepticum; assay type: cell-based
Text: as §1

Mycoplasma synoviae = assay: MIC, broth-dilution microtiter test, Mycoplasma synoviae; assay type: cell-based; details: Mycoplasmopsis synoviae
Text: as §1

Mycoplasma hyorhinis = assay: MIC, broth-dilution microtiter test, Mycoplasma hyorhinis; assay type: cell-based
Text: as §1

Mycoplasma hyopneumoniae = assay: MIC, broth-dilution microtiter test, Mycoplasma hyopneumoniae; assay type: cell-based
Text: as §1

[14] = tested on: Streptococcus pyogenes C203; assay: In vivo protection of mice experimentally infected with S. pyogenes C203; details: mice, doses given 1 and 4 hours post-infection; for ED50: Streptococcus pyogenes
Procedure: The C-20 modified derivatives of this invention have shown in vivo antimicrobial activity against experimentally-induced infections in laboratory animals. When two doses of test compound were administered to mice experimentally infected with S. pyogenes C203, the activity observed was measured as an ED50 value [effective dose in mg/kg to protect 50% of the test animals: see Warren Wick, et al., J. Bacteriol. 81, 233-235 (1961)].

[15] = tested on: Haemophilus influenzae Holt; assay: MIC, standard agar-dilution assay, Haemophilus influenzae Holt; assay type: cell-based
[16] = Staphylococcus epidermidis, EPI1
[17] = Staphylococcus epidermidis, EPI2
[18] = C203, sc, subcutaneous, read-out: ED50, Subcutaneous
[19] = C203, oral, read-out: ED50, Oral
[20] = Staphylococcus aureus X1.1, agar dilution
[21] = Staphylococcus aureus V41, penicillin-resistant strain, agar dilution
[22] = Staphylococcus aureus X400, methicillin-resistant strain, agar dilution
[23] = Staphylococcus aureus S13E, agar dilution
[24] = Staphylococcus epidermidis EPI1, agar dilution
[25] = Staphylococcus epidermidis EPI2, agar dilution
[26] = Streptococcus pyogenes C203, agar dilution
[27] = Streptococcus pneumoniae Park I, agar dilution
[28] = Streptococcus Group D X66, agar dilution
[29] = Haemophilus influenzae Holt, ampicillin-sensitive strain, agar dilution
[30] = Haemophilus influenzae R252, ampicillin-resistant strain, agar dilution
[31] = Streptococcus bovis 80, broth-dilution microtiter
[32] = Pasteurella multocida 60A, avian isolate, broth-dilution microtiter
[33] = Pasteurella hemolytica 22C, broth-dilution microtiter
[34] = Mycoplasma gallisepticum, broth-dilution microtiter
[35] = Mycoplasma hyorhinis, broth-dilution microtiter
[36] = Mycoplasma hyopneumoniae, broth-dilution microtiter

SMILES: CCC1OC(=O)CC(O)C(C)C(OC2OC(C)C(O)C(N(C)C)C2O)C(CCOc2cccc(N(C)C)c2)CC(C)C(=O)C=CC(C)=CC1COC1OC(C)C(O)C(OC)C1OC (stereo not shown) [Compound 39, 20-DH-20-O-[m-(N,N-Dimethylamino)phenyl]desmycosin]
- MIC ([1]; Staphylococcus aureus, X1.1): 0.5 µg/mL (≈ 0.56 µM)
- MIC ([2]; Staphylococcus aureus, V41): 0.5 µg/mL (≈ 0.56 µM)
- MIC ([3]; Staphylococcus aureus, X400): 0.5 µg/mL (≈ 0.56 µM)
- MIC ([4]; Staphylococcus aureus, S13E): 0.5 µg/mL (≈ 0.56 µM)
- MIC [5, 16]: 0.5 µg/mL (≈ 0.56 µM)
- MIC [6, 17]: 0.25 µg/mL (≈ 0.28 µM)
- MIC ([7]; Streptococcus pyogenes, C203): 0.25 µg/mL (≈ 0.28 µM)
- MIC ([8]; Streptococcus pneumoniae): 1 µg/mL (≈ 1.12 µM)
- MIC [9]: 4 µg/mL (≈ 4.48 µM)
- MIC (Streptococcus Group 9960; GROUP9960, read-out: MIC): 8 µg/mL (≈ 8.96 µM)
- MIC ([10]; Haemophilus influenzae, R252): 16 µg/mL (≈ 17.9 µM)
- MIC (Staphylococcus aureus): 6.25 µg/mL (≈ 7 µM)
- MIC (Streptococcus bovis 80; Streptococcus equinus, 80): 1.56 µg/mL (≈ 1.75 µM)
- MIC ([11]; read-out: MIC): 25 µg/mL (≈ 28 µM)
- MIC ([12]; Pasteurella multocida, 60A): 12.5 µg/mL (≈ 14 µM)
- MIC ([13]; Pasteurella hemolytica 22C, broth-dilution microtiter, read-out: MIC): > 50 µg/mL
- MIC (Mycoplasma gallisepticum; Mycoplasmoides gallisepticum): 1.56 µg/mL (≈ 1.75 µM)
- MIC (Mycoplasma synoviae): 1.56 µg/mL (≈ 1.75 µM)
- MIC (Mycoplasma hyorhinis; Mycoplasma hyorhinis, broth-dilution microtiter, read-out: MIC): 25 µg/mL (≈ 28 µM)
- MIC (Mycoplasma hyopneumoniae; Mesomycoplasma hyopneumoniae): 6.25 µg/mL (≈ 7 µM)
- ED50 [14, 18]: 6.7 mg/kg
- ED50 [14, 19]: 19 mg/kg

SMILES: CCC(=O)OC1C(C)OC(OC2C(CCN3C(=O)c4ccccc4C3=O)CC(C)C(=O)C=CC(C)=CC(COC3OC(C)C(O)C(OC)C3OC)C(CC)OC(=O)CC(O)C2C)C(OC(=O)CC)C1N(C)C (stereo not shown) [Compound 66, 20-DH-DO-20-N-Phthalimido-2',4'-di-O-propionyldesmycosin]
- MIC [1, 20]: 0.5 µg/mL (≈ 0.493 µM)
- MIC [2, 21]: 0.5 µg/mL (≈ 0.493 µM)
- MIC [3, 22]: 1 µg/mL (≈ 0.985 µM)
- MIC [4, 23]: 0.5 µg/mL (≈ 0.493 µM)
- MIC [5, 24]: 0.5 µg/mL (≈ 0.493 µM)
- MIC [6, 25]: 0.25 µg/mL (≈ 0.246 µM)
- MIC [7, 26]: 2 µg/mL (≈ 1.97 µM)
- MIC [8, 27]: 0.5 µg/mL (≈ 0.493 µM)
- MIC [9, 28]: 8 µg/mL (≈ 7.88 µM)
- MIC (Streptococcus Group 9960): 8 µg/mL (≈ 7.88 µM)
- MIC [15, 29]: 64 µg/mL (≈ 63 µM)
- MIC [10, 30]: 64 µg/mL (≈ 63 µM)
- MIC (Staphylococcus aureus; broth-dilution microtiter): 0.78 µg/mL (≈ 0.768 µM)
- MIC (Streptococcus bovis 80; [31]): 6.25 µg/mL (≈ 6.16 µM)
- MIC [11]: 25 µg/mL (≈ 24.6 µM)
- MIC [12, 32]: 25 µg/mL (≈ 24.6 µM)
- MIC [13, 33]: 25 µg/mL (≈ 24.6 µM)
- MIC (Mycoplasma gallisepticum; [34]): 0.09 µg/mL (≈ 0.0887 µM)
- MIC (Mycoplasma hyorhinis; [35]): 50 µg/mL (≈ 49.3 µM)
- MIC (Mycoplasma hyopneumoniae; [36]): 25 µg/mL (≈ 24.6 µM)
- ED50, Oral ([14]; oral): 31 mg/kg × 2
- ED50, Subcutaneous ([14]; subcutaneous): > 6.3 mg/kg × 2

SMILES: CCC(=O)OC1C(OC2C(CCCl)CC(C)C(=O)C=CC(C)=CC(COC3OC(C)C(O)C(OC)C3OC)C(CC)OC(=O)CC(O)C2C)OC(C)C(O)C1N(C)C (stereo not shown) [Compound 69, 20-DH-DO-20-Chloro-2'-O-propionyldesmycosin]
- MIC [1, 20]: 0.25 µg/mL (≈ 0.295 µM)
- MIC [2, 21]: 0.25 µg/mL (≈ 0.295 µM)
- MIC [3, 22]: 0.5 µg/mL (≈ 0.589 µM)
- MIC [4, 23]: 0.25 µg/mL (≈ 0.295 µM)
- MIC [5, 24]: 0.25 µg/mL (≈ 0.295 µM)
- MIC [6, 25]: 0.12 µg/mL (≈ 0.141 µM)
- MIC [7, 26]: 2 µg/mL (≈ 2.36 µM)
- MIC [8, 27]: 0.25 µg/mL (≈ 0.295 µM)
- MIC [9, 28]: 8 µg/mL (≈ 9.43 µM)
- MIC (Streptococcus Group 9960): 8 µg/mL (≈ 9.43 µM)
- MIC [15, 29]: 16 µg/mL (≈ 18.9 µM)
- MIC [10, 30]: 16 µg/mL (≈ 18.9 µM)
- MIC (Staphylococcus aureus; broth-dilution microtiter): 0.78 µg/mL (≈ 0.919 µM)
- MIC (Streptococcus bovis 80; [31]): 6.25 µg/mL (≈ 7.37 µM)
- MIC [11]: 25 µg/mL (≈ 29.5 µM)
- MIC [12, 32]: 2.5 µg/mL (≈ 2.95 µM)
- MIC [13, 33]: 25 µg/mL (≈ 29.5 µM)
- MIC (Mycoplasma gallisepticum; [34]): 0.39 µg/mL (≈ 0.46 µM)
- MIC (Mycoplasma hyorhinis; [35]): 50 µg/mL (≈ 58.9 µM)
- MIC (Mycoplasma hyopneumoniae; [36]): 12.5 µg/mL (≈ 14.7 µM)
- ED50, Oral ([14]; oral): 27 mg/kg × 2
- ED50, Subcutaneous ([14]; subcutaneous): 3.3 mg/kg × 2

SMILES: CCC1OC(=O)CC(O)C(C)C(OC2OC(C)C(O)C(N(C)C)C2O)C(CC2OCCO2)CC(C)C(=O)C=CC(C)=CC1COC1OC(C)C(O)C(OC)C1OC (stereo not shown) [Compound 74]
- MIC ([1]; Staphylococcus aureus, X1.1): 0.5 µg/mL (≈ 0.613 µM)
- MIC ([2]; Staphylococcus aureus, V41): 1 µg/mL (≈ 1.23 µM)
- MIC ([3]; Staphylococcus aureus, X400): 2 µg/mL (≈ 2.45 µM)
- MIC ([4]; Staphylococcus aureus, S13E): 0.5 µg/mL (≈ 0.613 µM)
- MIC [5, 16]: 0.5 µg/mL (≈ 0.613 µM)
- MIC [6, 17]: 0.25 µg/mL (≈ 0.306 µM)
- MIC ([8]; Streptococcus pneumoniae): 0.25 µg/mL (≈ 0.306 µM)
- MIC ([9]; Streptococcus Group D X66, agar dilution, read-out: MIC): 8 µg/mL (≈ 9.8 µM)
- MIC (Streptococcus Group 9960; GROUP9960, read-out: MIC): 8 µg/mL (≈ 9.8 µM)
- MIC ([15]; Haemophilus influenzae): 32 µg/mL (≈ 39.2 µM)
- MIC ([10]; Haemophilus influenzae, R252): 32 µg/mL (≈ 39.2 µM)
- MIC (Staphylococcus aureus): 3.12 µg/mL (≈ 3.82 µM)
- MIC (Streptococcus bovis 80; Streptococcus equinus, Streptococcus bovis 80, broth-dilution microtiter, read-out: MIC): 6.25 µg/mL (≈ 7.66 µM)
- MIC ([11]; read-out: MIC): 25 µg/mL (≈ 30.6 µM)
- MIC ([12]; Pasteurella multocida, 60A): 50 µg/mL (≈ 61.3 µM)
- MIC ([13]; Pasteurella, 22C): 50 µg/mL (≈ 61.3 µM)
- MIC (Mycoplasma gallisepticum; Mycoplasmoides gallisepticum): 3.12 µg/mL (≈ 3.82 µM)
- MIC (Mycoplasma synoviae): 6.25 µg/mL (≈ 7.66 µM)
- MIC (Mycoplasma hyorhinis; Mycoplasma): 50 µg/mL (≈ 61.3 µM)
- MIC (Mycoplasma hyopneumoniae; Mesomycoplasma hyopneumoniae): 1.56 µg/mL (≈ 1.91 µM)
- ED50 [14, 18]: 3.3 mg/kg
- ED50 [14, 19]: > 25 mg/kg

Reference: US4443436A, “C-20-Modified macrolide derivatives of the macrolide antibiotics tylosin, desmycosin, macrocin, and lactenocin” (Eli Lilly and Company, priority 1982, dated 1984)
